Data reported in patent publication US9155770B2.

Experiments:
ERβ [1] = target: T1, ERβ (Homo sapiens, UniProt Q92731); settings: Example 2
ERβ [2] = target: T1, ERβ; assay: TNF-RE tkLuc repression in U2OS cells with ERβ; format: cell-based; set-up: expressed in transfected cells
TNF-RE tkLuc = assay: Effect of antiestrogens on TNF-RE tkLuc (Example 2); format: cell-based, human; settings: in contrast to E2
ERβ [3] = target: T1, ERβ; assay: ERE-tk-Luc luciferase assay in U2OS cells with ERβ; format: cell-based; set-up: expressed in transfected cells; host or cells: U2OS (human osteosarcoma); settings: competition with the extract
[4] = test system: estrogen receptor-positive breast cancer; settings: five years of therapy; cited from earlier work
[5] = test system: primary invasive breast cancer; settings: women at high risk for breast cancer; cited from earlier work

T1 sequence (Q92731 whole entry): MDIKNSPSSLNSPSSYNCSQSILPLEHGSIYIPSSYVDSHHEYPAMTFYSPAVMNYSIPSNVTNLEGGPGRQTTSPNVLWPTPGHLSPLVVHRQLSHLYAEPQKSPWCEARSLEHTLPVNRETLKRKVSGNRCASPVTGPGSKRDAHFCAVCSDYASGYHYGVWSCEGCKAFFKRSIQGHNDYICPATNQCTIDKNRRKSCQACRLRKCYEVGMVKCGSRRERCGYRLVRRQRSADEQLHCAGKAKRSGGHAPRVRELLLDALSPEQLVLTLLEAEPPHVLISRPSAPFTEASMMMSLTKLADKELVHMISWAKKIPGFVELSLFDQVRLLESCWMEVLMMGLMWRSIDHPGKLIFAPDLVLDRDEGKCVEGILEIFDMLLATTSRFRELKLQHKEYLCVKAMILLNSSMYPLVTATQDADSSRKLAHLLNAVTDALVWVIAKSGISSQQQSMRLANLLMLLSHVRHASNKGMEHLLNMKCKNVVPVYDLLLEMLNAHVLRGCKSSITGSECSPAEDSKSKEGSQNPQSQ

## C[C@]12CC[C@@H]3c4ccc(O)cc4CC[C@H]3[C@@H]1CC[C@@H]2O [E2, estradiol]
ERβ [1]
  repression of TNF-α activation of TNF-RE tkLuc with ERβ: 60-80%
ERβ [2]
  repression of TNF-α activation of TNF-RE with ERβ: 100%

## C[C@]12CC[C@@H]3c4ccc(O)cc4C[C@@H](CCCCCCCCC[S+]([O-])CCCC(F)(F)C(F)(F)F)[C@H]3[C@@H]1CC[C@@H]2O (stereo partly drawn) [ICI 182, 780]
TNF-RE tkLuc
  activation of TNF-RE tkLuc: 2 fold

## O=C(c1ccc(OCCN2CCCCC2)cc1)c1c(-c2ccc(O)cc2)sc2cc(O)ccc12 [raloxifene]
TNF-RE tkLuc
  activation of TNF-RE tkLuc: 2 fold
ERβ [3]
  effect of SERM antagonist on extract-stimulated ERE with ERβ (FIG. 6): inhibited

## CC/C(=C(\c1ccccc1)c1ccc(OCCN(C)C)cc1)c1ccccc1 [tamoxifen]
TNF-RE tkLuc
  activation of TNF-RE tkLuc: 2 fold
[4]
  reduction of mortality from breast cancer: 22%
  reduction of risk of recurrences: 42%
[5]
  reduction of risk of primary invasive breast cancer: 49%
